Measured values reported in ChEMBL document CHEMBL1201862, “PubChem BioAssay data set” (2004).
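Method: 48-hour compound exposure of cells in 96-well plates, five concentrations, linear interpolation of endpoints. GI50 = concentration required for 50% inhibition of growth.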 Calls of active or inactive are those of the source. No stated cut-off is given here; in the data, active = GI50 up to about 1.1 µM and inactive = higher.

What was measured:
Assay in all cases: NCI-60 cell line screen, 48 h
[1] = system: EKVX
[2] = system: HCT-116
[3] = system: NCI-H226
[4] = system: OVCAR-8
[5] = system: SNB-75
[6] = system: A549
[7] = system: OVCAR-4
[8] = system: NCI-H23
[9] = system: SK-MEL-28
[10] = system: XF498
[11] = system: ACHN
[12] = system: K562
[13] = system: HT-29
[14] = system: HL-60
[15] = system: SF-268
[16] = system: 786-0
[17] = system: CCRF-CEM
[18] = system: OVCAR-5
[19] = system: Malme-3M
[20] = system: DMS-114
[21] = system: HOP-92
[22] = system: DLD-1
[23] = system: DMS-273
[24] = system: SNB-19
[25] = system: TK-10
[26] = system: UACC-62
[27] = system: SNB-78
[28] = system: UACC-257
[29] = system: M19-MEL
[30] = system: NCI-H460
[31] = system: RPMI-8226
[32] = system: LXFL 529
[33] = system: M14
[34] = system: U-251
[35] = system: LOX IMVI
[36] = system: A498
[37] = system: SW-620
[38] = system: UO-31
[39] = system: HCC 2998
[40] = system: SN12C
[41] = system: IGROV-1
[42] = system: CAKI-1
[43] = system: NCI-H522
[44] = system: HCT-15
[45] = system: HOP-62
[46] = system: OVCAR-3
[47] = system: SK-OV-3
[48] = system: KM-20L2
[49] = system: COLO 205
[50] = system: SF-539
[51] = system: KM12
[52] = system: SF-295
[53] = system: SK-MEL-5
[54] = system: SR
[55] = system: SK-MEL-2
[56] = system: HOP-18
[57] = system: MOLT-4
[58] = system: RXF 393

Measured: GI50

Nc1ccc(C(=O)NN2C(=O)C(Cl)C2c2cc(Br)ccc2O)cc1 (stereo not drawn)
inactive: [1] > 100 µM | [2] 15.9 µM | [3] > 100 µM | [4] > 100 µM | [5] > 100 µM | [6] > 100 µM | [7] > 100 µM | [8] > 100 µM | [9] > 100 µM | [10] > 100 µM | [11] > 100 µM | [12] 70.1 µM | [13] 64.6 µM | [14] 30.1 µM | [15] 50.5 µM | [16] 78.9 µM | [17] 62.1 µM | [18] > 100 µM | [19] > 100 µM | [20] 44.5 µM | [21] > 100 µM | [22] > 100 µM | [23] 80.4 µM | [24] > 100 µM | [25] > 100 µM | [26] > 100 µM | [27] > 100 µM | [28] > 100 µM | [29] > 100 µM | [30] > 100 µM | [31] > 100 µM | [32] > 100 µM | [33] > 100 µM | [34] 32.6 µM | [35] 41.2 µM | [36] > 100 µM | [37] > 100 µM | [38] > 100 µM | [39] > 100 µM | [40] > 100 µM | [41] 36.5 µM | [42] > 100 µM | [43] 22.4 µM | [45] > 100 µM | [46] > 100 µM | [47] > 100 µM | [48] > 100 µM | [49] > 100 µM | [50] > 100 µM | [51] > 100 µM | [52] > 100 µM | [53] > 100 µM
> 100 µM: [44]

COC(=O)[C@@]1(C)/C(=N/NS(=O)(=O)c2ccc(C)cc2)CCC[C@@H]1C
inactive: [1] > 100 µM | [2] > 100 µM | [54] 19.8 µM | [55] > 100 µM | [56] > 100 µM | [3] > 100 µM | [4] > 100 µM | [5] > 100 µM | [6] > 100 µM | [7] > 100 µM | [8] > 100 µM | [9] > 100 µM | [11] > 100 µM | [12] 74.3 µM | [13] > 100 µM | [14] 6.37 µM | [15] > 100 µM | [16] > 100 µM | [17] 27.8 µM | [18] > 100 µM | [19] > 100 µM | [20] 24.3 µM | [21] > 100 µM | [22] 44.7 µM | [24] > 100 µM | [25] > 100 µM | [26] > 100 µM | [27] > 100 µM | [28] > 100 µM | [29] > 100 µM | [30] 34 µM | [31] 30.8 µM | [32] > 100 µM | [33] > 100 µM | [34] > 100 µM | [35] 14.3 µM | [36] > 100 µM | [38] > 100 µM | [57] > 100 µM | [39] > 100 µM | [40] > 100 µM | [41] > 100 µM | [42] > 100 µM | [43] 41.8 µM | [45] > 100 µM | [46] > 100 µM | [47] > 100 µM | [48] > 100 µM | [49] 69.2 µM | [50] 88.3 µM | [51] > 100 µM | [52] > 100 µM | [58] > 100 µM | [53] > 100 µM
16.3 µM: [44]

Cn1cc2ccccc2c1-c1nc(F)nc(Oc2ccc3c(c2)CC[C@@H]2C3CC[C@]3(C)C(O)CCC23)n1 (stereo partly drawn)
inactive: [1] > 10 µM | [2] 17.5 µM | [55] 16.5 µM | [56] 15.3 µM | [3] 52.7 µM | [4] 17.4 µM | [5] 14.2 µM | [6] 22.1 µM | [7] 14.2 µM | [8] > 10 µM | [9] 16.3 µM | [11] 18.5 µM | [12] 29.2 µM | [15] 17.3 µM | [16] 16.9 µM | [17] 5.78 µM | [18] 18.6 µM | [19] 18.3 µM | [20] 13.8 µM | [21] 18.4 µM | [22] 15.9 µM | [23] 19.8 µM | [24] 18.7 µM | [25] 16.2 µM | [27] 12.2 µM | [28] 18.8 µM | [29] 21.7 µM | [32] 10.4 µM | [33] 15.9 µM | [34] 12 µM | [35] 15.8 µM | [37] 19.5 µM | [38] 21.7 µM | [57] 17.6 µM | [39] 19.9 µM | [40] 15.4 µM | [41] 13.7 µM | [42] > 10 µM | [43] 10.9 µM | [45] 16.7 µM | [46] 17.7 µM | [47] 17.2 µM | [48] 20.2 µM | [49] 22.3 µM | [50] 17.4 µM | [51] > 10 µM | [52] 15.3 µM | [58] 22.6 µM | [53] 15 µM
14.6 µM: [44]
